Test results reported in a melting point compilation (Tetko et al.; mined from patent text by program, amines drawn as free bases though some values may be those of a salt).

SMILES	melting point
Cc1[nH]c(C(=O)N2CCC(C(=O)N(C)CCN(C)C)CC2)c(C)c1-c1nc2ccc(C(=O)c3ccccc3)cc2[nH]1	264 to 266 °C
CC(C)(CO)c1cc(Cl)nnc1Cl	133 to 136 °C
O=c1c2cc3nnn(C4CC4)c(=O)c3cc2ncn1CCn1ncnn1	194 to 195 °C
O=C(O)c1cc(S(=O)(=O)c2ccccc2)ccc1[N+](=O)[O-]	210 to 212 °C
COc1ccc(NC(=O)N2CCc3cc(F)c(Cl)cc32)cc1N1CCN(C)CC1	177 to 180 °C
CC(=O)N[C@@H](C)COc1ccc2nc(-c3ccc(OCC4CC4)c(F)c3F)oc2c1F	168 °C
Cn1c(-c2cccc(-c3cc4ccccc4n3C)c2)cc2ccccc21	150 °C
CCC(CC)O[C@@H]1C=C(C(=O)O)C[C@H](CC(O)CN=[N+]=[N-])[C@H]1NC(C)=O (some centres not stated)	126 to 127 °C
N=C(Nc1ccc(Cl)cc1)Nc1ncccc1OCc1c(F)cccc1Cl	168 to 170 °C
CCCCCCCCCC[C@@H]1C(=O)OC(C)=C[C@@H]1C(=O)OC	40 to 42 °C
O=C(NCCc1c2n(c3ccc(O)nc13)CCCc1ccccc1-2)c1ccco1	> 260 °C
CNS(=O)(=O)c1ccc(Nc2nc(-c3ccccc3)cc(N3CCC(O)CC3)n2)cc1	280 to 285 °C
CN(C)Cc1nc(-c2ncn3c2CN(C)C(=O)c2c(Cl)cccc2-3)no1	152 to 153 °C
COc1ccc(-c2ccc(C(=O)Nc3ccc4nc(CN5CCCCC5)ccc4c3)cc2)cc1	192 to 194 °C
CCCCCCCCCCCCc1nnn[nH]1	68 to 70 °C
C[C@H](CO)Nc1nc(SCc2ccno2)nc2[nH]c(=O)cnc12	191 to 194 °C
COc1cc(OCc2ccccn2)ccc1/C=C/c1cc(/C=C/c2c[nH]c3ccc(F)cc23)n[nH]1	209 to 213 °C
NC(=O)c1cn(CC2CC2)c2ccccc12	170 °C
CC(=O)NC[C@H]1CN(c2ccc(-n3cnnc3S)c(F)c2)C(=O)O1	269 to 271 °C
Cc1c2c(c(Br)c(C(C)C)c1OCc1ccccc1)OC(C)(C)C2	156 °C
Cc1ccc(S(=O)(=O)N2CCCC2c2ccc(F)cc2)cc1Cl (racemic)	134 °C
O=CNc1cccc2ccccc12	134 to 135 °C
CC1CCC(n2ncc(-c3ccc(S(C)(=O)=O)cc3)c(-c3ccc(F)cc3)c2=O)C1 (configuration not stated)	169 to 171 °C
O=C(Nc1c[nH]nc1C(=O)NCCSc1ccccc1)c1ccccn1	180 to 181 °C
O=S(=O)(Nc1nc2ncccn2n1)c1ccccc1Cl	254 to 256 °C
Cc1ccccc1-c1cc(N2CCC(O)CC2)ncc1C(=O)N(C)Cc1cc(C(F)(F)F)cc(C(F)(F)F)c1	150 to 152 °C

SMILES	melting point
CC(=O)CCc1c(C)c(OC(C)=O)c(C)c(C)c1OC(C)=O	85 to 87.5 °C
O=C1OC(=O)c2c(F)cc(F)cc21	87 to 89 °C
COc1ccc(C2=C(C#N)c3ccc(OC)cc3CC2)cc1	151 °C
CC(O)(CC(=O)O)CC(=O)O	108 °C
Oc1ccc2nscc2c1	215 to 216 °C
COc1cc2c(cc1OC)N(C(=O)C=Cc1ccccc1)CC(N(C)C)C2 (configuration not stated)	97 to 98 °C
CC1=CC(c2cccc([N+](=O)[O-])c2)C2=C(CCCC2=O)N1 (configuration not stated)	183 to 185 °C
Cc1ccccc1-n1c(C=Cc2ccccn2)nc2ccsc2c1=O	203 °C
Cn1c(=O)cc(N)n(-c2ccc(Cl)cc2Cl)c1=O	249 to 251 °C
CN(c1ccnc(Cl)n1)n1cccc1	102 to 103 °C
Cn1nc(-c2ccncc2)n(C)c1=S	150 to 152 °C
Cc1cc(I)cc2c1oc(=O)n2C	100 to 101 °C
O=C(O)C1CSC(c2cccnc2)N1 (configuration not stated)	135 to 140 °C
COC(=O)c1cccc(C(=O)NC(Nc2c(Nc3cccnc3)c(=O)c2=O)C(C)(C)C)c1 (configuration not stated)	228 to 229 °C
COc1cc(C)c(N)c(C)c1Cc1ccc(C(C)C)cc1	91 to 92 °C
CC(Br)C(Br)C(=O)NC(=O)Nc1ccc(Cl)c(Cl)c1 (configuration not stated)	196 to 197 °C
CC(C)(C)c1cc(Sc2n[nH]c(=S)s2)cc(C(C)(C)C)c1O	181 to 186 °C
CC(C)(C)c1n[nH]c(SCCNC(=O)Nc2ccc(C(F)(F)F)cc2)n1	238 to 240 °C
CSc1ccc(-c2nc(SC)c(C#N)c(=O)n2-c2ccc(C)c(C)c2)cc1	234 to 236 °C
CCOC(=O)c1ccc(NC(=O)C(C)C)c(N)c1	147 to 149 °C
CCCOC(=O)CCC(=O)c1ccc(-c2ccccc2F)cc1	53 to 54 °C
CC(=O)Nc1ccc(OC(C)(C)c2nc3ccccc3s2)cc1	149 to 150 °C
O=C1N(Cc2ccc(Cl)s2)c2cccc(Br)c2C12COc1cc3c(cc12)OCO3 (configuration not stated)	85 to 87 °C
CC(=O)C1CCC2=C(C1)C1OC2c2cc3ccccc3cc21 (configuration not stated)	158 to 160 °C
Nc1cc(-n2cc(C(=O)O)c(=O)c3cc(F)c(Cl)nc32)c(F)cc1Cl	> 270 °C
COC(=O)c1ccc(NC(=O)c2cc(C(C)C)c(C(C)C)o2)cc1Cl	123 to 124 °C

SMILES	melting point
CCCSc1csc(C(=O)O)c1S(=O)(=O)NC(C)(C)C	123 to 126 °C
Cc1oc2ccccc2c1C(=O)N(Cc1ccccc1)Cc1ccc2c(Br)c(OCC#N)ccc2c1	145 to 146 °C
CCCOc1ncc(S(C)(=O)=O)cc1-c1nc2c(CC)nn(C[C@@H]3CCCN3C)c2c(=O)[nH]1	182 to 183 °C
CCCCCCNC(=O)c1cc(OC(C)=O)ccc1OC(C)=O	76.5 to 77 °C
O=C(c1ccc(F)cc1)C1CCN(CCCC2CCc3onc(-c4ccc(Cl)cc4)c3C2O)CC1 (configuration not stated)	152 to 155 °C
CCc1[nH]n(C2CCCC2)c2nc(-c3cc(C)nc(-n4ccnc4)c3)nc(=O)c1-2	277 to 278 °C
CNC(=O)C1=CC(CF)(CF)Oc2ccc(C#N)cc21	206 to 207 °C
O=C(NCl)c1c(C(F)(F)F)cc(Cl)nc1Cl	136 to 138 °C
CC(COc1ccccc1)OS(C)(=O)=O (configuration not stated)	58 °C
O=c1[nH]c(COc2cccc(Cl)c2Cl)nc2nccnc12	219 to 220 °C
FC(F)(F)Sc1cc(C(F)(F)F)[nH]c1-c1ccc(Cl)cc1	53 to 55 °C
COc1c(C(=O)O)ccc2ccccc12	118 to 122 °C
CN(C)C=C(C#N)C=O	140 to 141 °C
CCCCCCCCCCCCCCCC(=O)Oc1ccc(C(O)C(C)N2CCC(Cc3ccccc3)CC2)cc1 (configuration not stated)	75 to 77 °C
CCOC(=O)c1cnc2c(c1O)CCCCCCCCCC2	182 to 190 °C
COc1cccc(-c2nc(N)nc(Nc3cccc(Br)c3)n2)c1	142 °C
COc1cc2c3c(c1)c(=O)c(Cc1cccnc1)cn3-c1cc(Br)ccc1S2	169 to 173 °C
O=C(Nc1ccccc1SCc1ncon1)OCc1ccccc1	41 °C
NS(=O)(=O)c1cccc(NC(=O)c2cnn3c(C(F)F)cc(-c4ccc(C(F)(F)F)c(F)c4)nc23)c1	262 °C
Cc1cc(-n2ccnc2)c2cccc(OCc3c(Cl)ccc(S(=O)(=O)N4CSC[C@H]4C(=O)O)c3Cl)c2n1	130 °C
O=C(O)c1ccc(NC(=O)c2ccc(Cl)cc2Cl)cc1Cl	171 to 175 °C
O=C(O)C1Cc2c(c(Cl)cc3c(=O)c4ccccc4oc23)O1 (configuration not stated)	292 to 295 °C
Oc1ccccc1-c1cc(-c2ccc(F)c(F)c2)cc(-c2ccc3ccccc3c2)n1	165 to 167 °C
O=C(O)c1cc2cccc(OCC3CO3)c2o1 (configuration not stated)	117 to 119 °C
CCCc1c(OCc2cccc(C(=O)O)c2OCC)ccc(C(C)=O)c1O	154 to 156 °C
c1ccc(-c2ccc3[nH]c4c(ccc5cc[nH]c54)c3c2)cc1	> 250 °C

SMILES	melting point
CNC(=O)c1ccccc1C(O)(c1ccc(Cl)cc1)c1ccccc1CN(C)C (configuration not stated)	154 to 156 °C
CCOC(=O)C1=C(COCCN)NC(C)=C(C(=O)OC)C1c1cccc(C(F)(F)F)c1Cl (configuration not stated)	122 °C
COC(=O)Nc1nc2cc(C(c3ccc(F)cc3)n3cncn3)ccc2[nH]1 (configuration not stated)	250 °C
COc1ccc(Nc2nc3cccc(-c4ccc(CN5CCS(=O)(=O)CC5)cc4)n3n2)cc1	241 °C
CC1NC(=O)C2=C1c1ccc(Cl)cc1C(c1ccccc1Cl)=NC2 (configuration not stated)	239 to 241 °C
COc1ccc(C(=CC=O)c2ccc(OC)c(OC)c2)cc1OC	129 to 130 °C
CCn1c(=O)c2[nH]c(/C=C/c3cc(OC)c(OC)cc3[N+](=O)[O-])nc2n(CC)c1=O	284 °C
CCOC(=O)N(Cc1ccc(F)cc1)c1ccc(C(=O)OC)cc1	83 to 84 °C
CCn1nc(C)c2c1C(=O)NCC(c1ccccc1O)=N2	220 °C
COc1nc(C)c2c(c1C#N)CCCC2	116 °C
COC(=O)c1cc(-c2ccc(Cl)cc2)n(Cc2ccc(Cl)cc2Cl)n1	105 °C
CC(C)c1ccc2c(c1)C(=O)N(C)C(c1ccc(C(C)(C)C)cc1)C2C(=O)O (configuration not stated)	204 to 207 °C
O=C(CCl)n1ccc2cc(F)ccc21	236 to 237 °C
C1=CC2=NC=NC23CCNCC3N1 (configuration not stated)	94 to 95 °C
CN1CCN(c2cc(Cl)cc3c2c(=O)n(Cc2ccccc2[N+](=O)[O-])c(=O)n3Cc2ccccc2)CC1	164 to 169 °C
O=S(=O)(F)c1ccc(OCc2ccccc2)nn1	85 to 86 °C
CC(=O)Nc1cccc(OC(Cn2ccnc2)c2ccc(Cl)cc2Cl)c1 (configuration not stated)	108 to 112 °C
COc1nc(NC(=O)NS(=O)(=O)c2ccccc2OC(F)F)nc(NC(C)(C)C)n1	213 to 214 °C
CCOC(=O)/C=C/c1ccc(OC(C)C)cc1Oc1ncc(C(F)(F)F)cc1Cl	84.5 to 85 °C
O=C(NNC(=O)c1ccc([N+](=O)[O-])cc1)c1ccccc1	254 to 256 °C
Cc1nc2c(N)nc3ccccc3c2n1CCCCNC(=O)C1CCCCC1	192 to 193 °C
Cc1ccc2oc(S(=O)(=O)c3ccc(=O)[nH]n3)c(C)c2c1	246 to 247 °C
Cc1cc(C)c(Nc2nc(C)ncc2S(=O)(=O)c2ccc(C3=NCCN3)cc2)c(C)c1	240 to 242 °C
O=S(=O)(c1ccc(Cl)cc1)C(c1cc(F)ccc1F)c1cc(CO)ncc1Br (configuration not stated)	172 to 173 °C
